The source made the active and inactive calls.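 The calls were made as follows: active = at least one rat sex group has a carcinogenic potency value and tumor site recorded; inconclusive = only rat studies were judged inadequate by the national testing program; inactive = no potency or tumor site, with negative rat experiments.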

The series relates to rat chronic carcinogenicity bioassay, TD50. Nature of the series: DSSTox (CPDBAS) Carcinogenic Potency Database Summary Rat Bioassay Results. The settings on record: for outcome: TD50_Rat_Note: no positive results; for Potency: stronger effect = lower value. A digest of the protocol: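 The activity score maps log10(1/TD50_Rat_mmol) linearly onto 1–100; actives without a computed TD50, such as mixtures, receive 50. Source data are chronic rat carcinogenicity tests, using the most positive experiment for each sex.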

Where [1] appears, read: TargetSites_Rat_Female: no positive results.

`COc1ccccc1N1CCN(CCCNc2cc(=O)n(C)c(=O)n2C)CC1`: the outcome under setting [1] is “inactive; no positive results”. Turning to `O=S(=O)([O-])[O-].[O]=[V+2]`, the outcome is “inactive; no positive results”. In the case of `Cn1c(=O)c2c(ncn2C)n(C)c1=O`, the outcome under setting [1] is “inactive; no positive results”.

For `COc1cccc2c1cc([N+](=O)[O-])c1c(C(=O)O)cc3c(c12)OCO3`, the Potency (TD50_Rat_Note: TD50 is harmonic mean of more than one positive test, TD50_Rat_mmol was not calculated for this mixture, but Activiity S, TargetSites_Rat_Female: stomach) was 0.0141 mg/kg/day. In the case of `Cc1ccc(O)c(C(C)(C)C)c1`, the outcome is “inactive; no positive results”. Take `O=NN(CC(F)(F)F)CC(F)(F)F`: under setting [1], the outcome is “inactive; no positive results”. For the molecule `CC(C)CN(N=O)C(=N)N[N+](=O)[O-]`, the outcome was “inactive; no positive results”. In the case of `Nc1ncn[nH]1`, the Potency (TD50_Rat_Note: TD50 is harmonic mean of more than one positive test, TargetSites_Rat_Female: pituitary gland, thyroid gland) was 9.94 mg/kg/day.

Regarding `COc1ccc(C(Cl)=C(c2ccc(OC)cc2)c2ccc(OC)cc2)cc1`, the outcome under setting [1] is “inactive; no positive results”.

`COc1ccc(O)cc1`: the Potency (TD50_Rat_Note: TD50 is harmonic mean of more than one positive test, TargetSites_Rat_Female: stomach) was 658 mg/kg/day. As to `CC[N+](=O)[O-]`, the outcome under setting [1] was “inactive; no positive results”.

As to `CC(Cl)CCl` (centres undefined), the outcome under setting [1] is “inactive; no positive results”. Consider `Cc1cccc(C)c1NC(=O)CN1CCCC1=O`, for which, under setting [1], the outcome was “inactive; no positive results”. For `NC(=O)N/N=C/c1ccc([N+](=O)[O-])o1`, the Potency (TD50_Rat_Note: TD50 is harmonic mean of more than one positive test, harmonic mean of TD50 includes a value for upper 99% confidence li, TargetSites_Rat_Female: mammary gland) is 6.98 mg/kg/day. For `CCN(Cc1cccc(S(=O)(=O)[O-])c1)c1ccc(C(=C2C=CC(=[N+](C)C)C=C2)c2ccc(N(CC)Cc3cccc(S(=O)(=O)O)c3)cc2)cc1`, under “TD50_Rat_Note: TD50 is harmonic mean of more than one positive test, TargetSites_Rat_Female: mammary gland, skin”, the Potency was 612 mg/kg/day. In the case of `Cc1ccc(N)c(C)c1`, the outcome is “inactive; no positive results”. Regarding `CC(O)CN(C)N=O` (centres undefined), under “TD50_Rat_Note: TD50 is harmonic mean of more than one positive test, TargetSites_Rat_Female: esophagus, nasal cavity”, the Potency is 0.0463 mg/kg/day. On to `O=P(=O)O`, for which the outcome under setting [1] was “inactive; no positive results”. In the case of `O=S1(=O)N=C(O)c2ccccc21`, the outcome is “inactive; no positive results”. Regarding `C=Cc1cccc[n+]1[O-]`, the outcome under setting [1] was inactive. Take `Clc1ccc2c(c1)C(c1ccccc1)=NCc1nncn1-2`: under setting [1], the outcome is “inactive; no positive results”. Turning to `O=NN1CCNCC1`, the Potency (TD50_Rat_Note: TD50 is harmonic mean of more than one positive test, no positive results are statistically significant, TargetSites_Rat_Female: all tumor bearing animals) was 8.78 mg/kg/day. With `O=C(c1ccccc1)C(O)c1ccccc1` (centres undefined), the outcome under setting [1] was “inactive; no positive results”. On to `CNC(=O)c1c(N(C)N=O)ncn1C`, for which the Potency (TargetSites_Rat_BothSexes: nasal cavity) is 1 mg/kg/day. Take `C[C@@H]1O[C@@H](OC[C@H]2O[C@@H](Oc3c(-c4ccc(O)c(O)c4)oc4cc(O)cc(O)c4c3=O)[C@H](O)[C@@H](O)[C@@H]2O)[C@H](O)[C@H](O)[C@H]1O`: the outcome under setting [1] is “inactive; no positive results”.

`CCC[CH2][Sn]([CH2]CCC)([CH2]CCC)[O][Sn]([CH2]CCC)([CH2]CCC)[CH2]CCC`: under setting [1], the outcome is “inactive; no positive results”. With `O=[N+]([O-])c1ccc(Cl)c([N+](=O)[O-])c1`, the outcome was “inactive; no positive results”.

`O=c1c(O)c(-c2ccc(O)cc2)oc2cc(O)cc(O)c12`: the outcome under setting [1] is “inactive; no positive results”. Still for that read-out and setting: as for `CC1(C)S[C@@H]2[C@H](NC(=O)[C@H](N)c3ccccc3)C(=O)N2[C@H]1C(=O)O`, the entry is “inactive; no positive results”. Consider `O=C1CN(/N=C/c2ccc([N+](=O)[O-])o2)C(=O)N1`, for which the Potency under setting [1] is 163 mg/kg/day. For `N[C@@H](CCC(=O)O)C(=O)O`, the outcome under setting [1] was “inactive; no positive results”.

Turning to `CN(Cc1cnc2nc(N)nc(N)c2n1)c1ccc(C(=O)N[C@@H](CCC(=O)O)C(=O)O)cc1`, the outcome under setting [1] is “inactive; no positive results”. Regarding `S=C=NCCCCCCc1ccccc1`, the outcome was “inactive; no positive results”. Regarding `CN(C)CCC(c1ccc(Cl)cc1)c1ccccn1` (centres undefined), under setting [1], the outcome is “inactive; no positive results”. As for `CN1C(C(=O)Nc2ccccn2)=C(O)c2ccccc2S1(=O)=O`, the outcome is “inactive; no positive results”. In the case of `CN(C)CCN(Cc1cccs1)c1ccccn1`, for the setting “TD50_Rat_Note: TD50 is harmonic mean of more than one positive test, TargetSites_Rat_Female: liver”, the Potency is 9.13 mg/kg/day.

For the molecule `[O-][Cl+]O`, the outcome under setting [1] is “inactive; no positive results”.

Turning to `O=C(O)c1cc(O)c(O)c(O)c1`, the outcome is “inactive; no positive results”. Consider `CCC(O)OC(O)CC` (centres undefined), for which, under setting [1], the outcome was “inactive; no positive results”.

Source of the values: PubChem BioAssay AID1208 (EPA DSSTox, 2008).
